How the values were obtained:
GPR56^N = target: T1, GPR56^N (Mus musculus, UniProt Q8K209); assay: In vitro biotinylation/proteomics pull-down from mixed glial cell lysate with mass spectrometry; conditions: peptide sequences specific for binding to GPR56^N
T1 construct: Using the soluble N-terminal fragment of GPR56 (GPR56^N); made in house
Excerpt: To identify the ligand of GPR56 in OPCs, an in vitro biotinylation/proteomics approach was employed using single-step capture on streptavidin beads to purify the binding partner(s) of GPR56 (FIGS. 2A-2B). Proteins with more than five identified tryptic peptides in the Mass Spectrometry (MS) output from three independent experiments are listed at Table 1.
(§1) GPR56^N and GPR56^Ndel fusions proteins with either mFc or hFc tag were generated as previously described (Luo et al. Proc Natl Acad Sci USA 108, 12925-12930, 2011). BirA enzyme was used to in vitro biotinylate GPR56^N-mFc-biotag protein as previously described (De Laurenzi and Melino Mol Cell Biol 21, 148-155, 2001). Mixed glial cell lysate was incubated with biotinylated GPR56^N protein in lysis buffer [20 mM Hepes (pH 7.3), 150 mM NaCl, and 5 mM MgCl2] with protein inhibitor mixture (Roche Molecular Biochemicals) and 1% Brij 96 (Fluka). Streptavidin beads (Sigma) were used to affinity purify immunocomplexes. GPR56-associated proteins were eluted in 2×SDS loading buffer, subjected to SDS/PAGE. The whole lane was used for MS at the Taplin Biological Mass Spectrometry at Havard Medical School. MS data were searched against the mouse International Protein Index (IPI mouse 339) database using the protein identification software Mascot (v2.2.04, Matrix Sciences) (Luo et al. Proc Natl Acad Sci USA 108, 12925-12930, 2011).
as §1, with “al.,” for “al.”, “(Stacey et al., J” for “(De Laurenzi and Melino Mol Cell”, “Chem 277, 29283-29293, 2002).” for “21, 148-155, 2001).”, “(20” for “[20”, “[pH 7.3],” for “(pH 7.3),”, “MgCl2)” for “MgCl2]”

[1] = system: oligodendrocyte precursors (OPCs); assay: OPC proliferation on laminin-111 or fibronectin with recombinant TG2; assay type: cell-based, mouse
Excerpt: P=0.70 (control vs. TG2-W241A); **P=0.0088 (TG2 vs. TG2-W241A). […] FIG. 16D depicts a Western blot of active RhoA (top panel) and total RhoA (bottom panel) in the corpus callosum (CC) of Tgm2^+/+ and Tgm2^−/− mice. FIG. 16E is a graph showing that the relative level of active RhoA to total RhoA was diminished in the CC of Tgm2^−/− mice compared to […]. *P=0.0207, unpaired t-test, N=3 per genotype. FIG. 16F depicts a Western blot of GPR56^N in the supernatant of HEK 293T cell culture after exposed to either TG2 or TG2+laminin-111 (top panel), GTP-RhoA (middle panel) and total RhoA (lower panel) in HEK 293T cell pellet exposed to either TG2 or TG2+laminin-111. FIG. 16G is a graph showing that released GPR56 NTF was increased in the presence of both TG2 and laminin-111. ***P=0.0002; One-way ANOVA followed by Tukey post-hoc test, F (2,6)=49.66, n.s. P=0.95 (control vs. TG2); ***P=0.0003 (control vs. TG2+laminin-111); ***P=0.0004 (TG2 vs. TG2+laminin-111); N=3 per treatment group. FIG. 16H is a graph showing that the relative level of GTP-RhoA to total RhoA was increased in the presence of both TG2 and laminin-111, corresponding to the increased GPR56 NTF in the supernatant. **P=0.0028; One-way ANOVA followed by Tukey post-hoc test, F (2,6)=18.19, n.s. P=0.75 (control vs. TG2); **P=0.0035 (control vs. TG2+laminin-111); **P=0.0071 (TG2 vs. TG2+laminin-111) N=3 per treatment group. Error bars are mean±s.e.m in FIGS. 16E, 16G, and 16H.
To establish conditions for mechanistic investigation of the function of TG2 on OPC GPR56 during myelination and remyelination, in vitro experiments were performed with wt and Gpr56^−/− oligodendrocyte precursors (OPCs) and human recombinant TG2. […] TG2 is an extracellular protein with intrinsic transamidation activity, capable of cross-linking ECM proteins, including laminin-111 (Aeschlimann et al., J Biol Chem 267, 11316-11321, 1992; Belkin, FEBS J 278, 4704-4716, 2011). […] To confirm that TG2 regulates OPC proliferation in a GPR56-dependent manner, OPCs derived from P5 Gpr56^+/+ or Gpr56^−/− pups were cultured in the presence of laminin-111, with or without recombinant TG2. TG2-associated proliferation was attenuated in Gpr56^−/− OPCs (FIG. 16C), further supporting a GPR56-dependent TG2 function on OPC proliferation.
Oligodendrocyte precursor cells (OPCs) were isolated from mixed male and female P5-8 Gpr56^+/+ or Gpr56^−/− mouse forebrains as previously described (Wang et al., Neuron 29, 603-614, 2001; Watkins et al., Neuron 60, 555-569, 2008). Briefly, OPCs were purified by negatively selecting with mouse anti-Thy 1.2 (Serotec, Cat #MCA02R) and mouse anti-GalC (Millipore, Cat #MAB342), followed by mouse anti-04 (04 hybridoma supernatant) for positive selection. After releasing OPCs from the 04 plate by trypsinization, cells were resuspended in proliferation media containing PDGF-AA and NT-3 (PreproTech). OPCs were plated on coverslips coated with poly-D-lysine before coating with laminin I (R&D Systems, Cat #3400-010-01) or fibronectin (Millipore, Cat #341668) as previously described (Dugas et al., J Neurosci 26, 10967-10983, 2006). After 24 hr, TG2 (2 nM) was added to the cultures and incubated for an additional 24 hr before fixation with 4% PFA and staining for PDGFRα and Ki67.

T1 sequence (Q8K209 26-382 limits assumed): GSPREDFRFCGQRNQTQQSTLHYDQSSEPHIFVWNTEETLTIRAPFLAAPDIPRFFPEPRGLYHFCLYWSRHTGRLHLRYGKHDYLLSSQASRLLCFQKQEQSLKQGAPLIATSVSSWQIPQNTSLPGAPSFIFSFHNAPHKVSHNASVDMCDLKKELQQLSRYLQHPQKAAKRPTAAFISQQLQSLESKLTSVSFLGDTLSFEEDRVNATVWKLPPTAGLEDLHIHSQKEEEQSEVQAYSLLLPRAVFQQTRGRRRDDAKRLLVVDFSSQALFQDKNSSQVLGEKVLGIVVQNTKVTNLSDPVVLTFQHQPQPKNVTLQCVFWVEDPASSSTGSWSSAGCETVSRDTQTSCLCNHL

Transglutaminase 2 [TG2]
Peptide Number (Exp1) (GPR56^N; experiment 1): 19
Peptide Number (Exp2) (GPR56^N; experiment 2): 20
Peptide Number (Exp3) (GPR56^N; experiment 3): 17
OPC proliferation ([1]; Gpr56−/− OPCs, in the presence of laminin-111, with recombinant TG2): attenuated
OPC proliferation ([1]; Gpr56−/− OPCs, in the presence of laminin-111, with recombinant TG2, listed as recombinant TG2): failed to respond
OPC proliferation, wild type TG2 vs enzymatic dead mutant ([1]; versus control, One-way ANOVA, Tukey post-hoc): stimulated OPC proliferation
OPC proliferation ([1]; wt OPCs, basal condition (no laminin-111), TG2 2 nM, 24 hr): failed to augment
OPC proliferation ([1]; wt OPCs, in the presence of laminin-111, TG2 2 nM, 24 hr): stimulated OPC proliferation
OPC proliferation ([1]; wt OPCs, in the presence of laminin-111, TG2 2 nM, 24 hr, listed as recombinant TG2): significantly increased

— US12358959B2, “Compositions and methods for oligodendrocyte development” (CHILDREN'S MEDICAL CENTER CORPORATION, priority 2016, dated 2025)
